From PMC6979384, “Characterization of the plant homeodomain (PHD) reader family for their histone tail interactions” (Epigenetics & Chromatin, 2020)

Tests used:
Assay in all cases: Histone peptide microarray
Format in all cases: binding, human
Conditions in all cases: sheet "Array Heatmap"
CHD4 (PPCC) = tested on: CHD4 (PPCC)
Procedure, shortened: (§1)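 Recombinant GST-PHD protein at 0.5 μM; 293-member modified histone peptide array; signals averaged from four repeats ± SD.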

KDM4C (TTP) = tested on: KDM4C (TTP)
Procedure, shortened: as §1

AIRE (PP) = tested on: AIRE (PP)
Procedure, shortened: as §1

CHD5 (PCC) = tested on: CHD5 (PCC)
Procedure, shortened: as §1

KDM5B (1) = tested on: KDM5B (1)
Procedure, shortened: as §1

TRIM66 (PB) = tested on: TRIM66 (PB)
Procedure, shortened: as §1

PHF8 = tested on: PHF8
Procedure, shortened: as §1

ING5 = tested on: ING5
Procedure, shortened: as §1

BPTF (PB) = tested on: BPTF (PB)
Procedure, shortened: as §1

PHRF1 (RP) = tested on: PHRF1 (RP)
Procedure, shortened: as §1

SP140L = tested on: SP140L
Procedure, shortened: as §1

KDM7A = tested on: KDM7A
Procedure, shortened: as §1

PHF23 = tested on: PHF23
Procedure, shortened: as §1

ING1 = tested on: ING1
Procedure, shortened: as §1

BAZ2B = tested on: BAZ2B
Procedure, shortened: as §1

TAF3 = tested on: TAF3
Procedure, shortened: as §1

ING4 = tested on: ING4
Procedure, shortened: as §1

PHF21A = tested on: PHF21A
Procedure, shortened: as §1

PHF2 = tested on: PHF2
Procedure, shortened: as §1

KDM5B (3) = tested on: KDM5B (3)
Procedure, shortened: as §1

CHD5 (PPCC) = tested on: CHD5 (PPCC)
Procedure, shortened: as §1

MORC3 (CW) = tested on: MORC3 (CW)
Procedure, shortened: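 Readout is array binding signal, reported as the mean and standard deviation over four replicates. Each purified GST-fused PHD domain was incubated at 0.5 μM with a library of 293 modified histone peptides.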

ING2 = tested on: ING2
Procedure, shortened: as §1

PHF13 = tested on: PHF13
Procedure, shortened: as §1

KDM5A (3) = tested on: KDM5A (3)
Procedure, shortened: as §1

RAG2 = tested on: RAG2
Procedure, shortened: as §1

DPF2 (PPC2W2) = tested on: DPF2 (PPC2W2)
Procedure, shortened: as §1

ING3 = tested on: ING3
Procedure, shortened: as §1

MLL5 = tested on: MLL5
Procedure, shortened: as §1

DIDO1 = tested on: DIDO1
Procedure, shortened: as §1

KDM5A (1) = tested on: KDM5A (1)
Procedure, shortened: as §1

[1] = GST-tagged CHD4 (PPCC), arrays performed twice, total replicate number n = 4
[2] = GST-tagged KDM4C (TTP), arrays performed twice, total replicate number n = 4
[3] = GST-tagged AIRE (PP), arrays performed twice, total replicate number n = 4
[4] = GST-tagged CHD5 (PCC), arrays performed twice, total replicate number n = 4
[5] = GST-tagged KDM5B (1), arrays performed twice, total replicate number n = 4
[6] = GST-tagged TRIM66 (PB), arrays performed twice, total replicate number n = 4
[7] = GST-tagged PHF8, arrays performed twice, total replicate number n = 4
[8] = GST-tagged ING5, arrays performed twice, total replicate number n = 4
[9] = GST-tagged BPTF (PB), arrays performed twice, total replicate number n = 4
[10] = GST-tagged PHRF1 (RP), arrays performed twice, total replicate number n = 4
[11] = GST-tagged SP140L, arrays performed twice, total replicate number n = 4
[12] = GST-tagged KDM7A, arrays performed twice, total replicate number n = 4
[13] = GST-tagged PHF23, arrays performed twice, total replicate number n = 4
[14] = GST-tagged ING1, arrays performed twice, total replicate number n = 4
[15] = GST-tagged BAZ2B, arrays performed twice, total replicate number n = 4
[16] = GST-tagged TAF3, arrays performed twice, total replicate number n = 4
[17] = GST-tagged ING4, arrays performed twice, total replicate number n = 4
[18] = GST-tagged PHF21A, arrays performed twice, total replicate number n = 4
[19] = GST-tagged PHF2, arrays performed twice, total replicate number n = 4
[20] = GST-tagged KDM5B (3), arrays performed twice, total replicate number n = 4
[21] = GST-tagged CHD5 (PPCC), arrays performed twice, total replicate number n = 4
[22] = GST-tagged MORC3 (CW), arrays performed twice, total replicate number n = 4
[23] = GST-tagged ING2, arrays performed twice, total replicate number n = 4
[24] = GST-tagged PHF13, arrays performed twice, total replicate number n = 4
[25] = GST-tagged KDM5A (3), arrays performed twice, total replicate number n = 4
[26] = GST-tagged RAG2, arrays performed twice, total replicate number n = 4
[27] = GST-tagged DPF2 (PPC2W2), arrays performed twice, total replicate number n = 4
[28] = GST-tagged ING3, arrays performed twice, total replicate number n = 4
[29] = GST-tagged MLL5, arrays performed twice, total replicate number n = 4
[30] = GST-tagged DIDO1, arrays performed twice, total replicate number n = 4
[31] = GST-tagged KDM5A (1), arrays performed twice, total replicate number n = 4
[32] = GST-tagged reader, histone peptide array, total n = 4

Substance: H3R8me2s + K9me2: H3 1-20
- Array Heatmap signal, CHD4 (PPCC) (CHD4 (PPCC); [1]): 0.5754
- Array Heatmap signal, KDM4C (TTP) (KDM4C (TTP); [2]): 0.5379
- Array Heatmap signal, AIRE (PP) (AIRE (PP); [3]): 0.5603
- Array Heatmap signal, CHD5 (PCC) (CHD5 (PCC); [4]): 0.7949
- Array Heatmap signal, KDM5B (1) (KDM5B (1); [5]): 0.6818
- Array Heatmap signal, TRIM66 (PB) (TRIM66 (PB); [6]): 0.5924
- Array Heatmap signal, PHF8 (PHF8; [7]): 0.3655
- Array Heatmap signal, ING5 (ING5; [8]): 0.3835
- Array Heatmap signal, BPTF (PB) (BPTF (PB); [9]): 0.3651
- Array Heatmap signal, PHRF1 (RP) (PHRF1 (RP); [10]): 0.5504
- Array Heatmap signal, SP140L (SP140L; [11]): 0.3733
- Array Heatmap signal, KDM7A (KDM7A; [12]): 0.4179
- Array Heatmap signal, PHF23 (PHF23; [13]): 0.5163
- Array Heatmap signal, ING1 (ING1; [14]): 0.5182
- Array Heatmap signal, BAZ2B (BAZ2B; [15]): 0.5059
- Array Heatmap signal, TAF3 (TAF3; [16]): 0.2872
- Array Heatmap signal, ING4 (ING4; [17]): 0.4841
- Array Heatmap signal, PHF21A (PHF21A; [18]): 0.4814
- Array Heatmap signal, PHF2 (PHF2; [19]): 0.4235
- Array Heatmap signal, KDM5B (3) (KDM5B (3); [20]): 0.5187
- Array Heatmap signal, CHD5 (PPCC) (CHD5 (PPCC); [21]): 0.5952
- Array Heatmap signal, MORC3 (CW) (MORC3 (CW); [22]): 0.398
- Array Heatmap signal, ING2 (ING2; [23]): 0.6129
- Array Heatmap signal, PHF13 (PHF13; [24]): 0.6345
- Array Heatmap signal, KDM5A (3) (KDM5A (3); [25]): 0.4844
- Array Heatmap signal, RAG2 (RAG2; [26]): 0.2593
- Array Heatmap signal, DPF2 (PPC2W2) (DPF2 (PPC2W2); [27]): 0.6724
- Array Heatmap signal, ING3 (ING3; [28]): 0.4823
- Array Heatmap signal, MLL5 (MLL5; [29]): 0.5188
- Array Heatmap signal, DIDO1 (DIDO1; [30]): 0.6168
- Array Heatmap signal, KDM5A (1) (KDM5A (1); [31]): 0.5094

Substance: H3R8me2s + K9me3: H3 1-20
- Array Heatmap signal, CHD4 (PPCC) (CHD4 (PPCC); [1]): 0.6275
- Array Heatmap signal, KDM4C (TTP) (KDM4C (TTP); [2]): 0.5668
- Array Heatmap signal, AIRE (PP) (AIRE (PP); [3]): 0.6619
- Array Heatmap signal, CHD5 (PCC) (CHD5 (PCC); [4]): 0.8709
- Array Heatmap signal, KDM5B (1) (KDM5B (1); [5]): 0.6697
- Array Heatmap signal, TRIM66 (PB) (TRIM66 (PB); [6]): 0.7482
- Array Heatmap signal, PHF8 (PHF8; [7]): 0.4276
- Array Heatmap signal, ING5 (ING5; [8]): 0.4272
- Array Heatmap signal, BPTF (PB) (BPTF (PB); [9]): 0.4039
- Array Heatmap signal, PHRF1 (RP) (PHRF1 (RP); [10]): 0.5937
- Array Heatmap signal, SP140L (SP140L; [11]): 0.3989
- Array Heatmap signal, KDM7A (KDM7A; [12]): 0.3933
- Array Heatmap signal, PHF23 (PHF23; [13]): 0.594
- Array Heatmap signal, ING1 (ING1; [14]): 0.6071
- Array Heatmap signal, BAZ2B (BAZ2B; [15]): 0.5401
- Array Heatmap signal, TAF3 (TAF3; [16]): 0.3134
- Array Heatmap signal, ING4 (ING4; [17]): 0.5372
- Array Heatmap signal, PHF21A (PHF21A; [18]): 0.5424
- Array Heatmap signal, PHF2 (PHF2; [19]): 0.5404
- Array Heatmap signal, KDM5B (3) (KDM5B (3); [20]): 0.5509
- Array Heatmap signal, CHD5 (PPCC) (CHD5 (PPCC); [21]): 0.6469
- Array Heatmap signal, MORC3 (CW) (MORC3 (CW); [22]): 0.4796
- Array Heatmap signal, ING2 (ING2; [23]): 0.6159
- Array Heatmap signal, PHF13 (PHF13; [24]): 0.7048
- Array Heatmap signal, KDM5A (3) (KDM5A (3); [25]): 0.5266
- Array Heatmap signal, RAG2 (RAG2; [26]): 0.2769
- Array Heatmap signal, DPF2 (PPC2W2) (DPF2 (PPC2W2); [27]): 0.784
- Array Heatmap signal, ING3 (ING3; [28]): 0.5417
- Array Heatmap signal, MLL5 (MLL5; [29]): 0.5932
- Array Heatmap signal, DIDO1 (DIDO1; [30]): 0.7617
- Array Heatmap signal, KDM5A (1) (KDM5A (1); [31]): 0.5383

Substance: H3R17me1: H3 1-20 [Peptide H3R17me1]
- Array Heatmap signal, CHD4 (PPCC) (CHD4 (PPCC); [32]): 0.598
- Array Heatmap signal, KDM4C (TTP) (KDM4C (TTP); [32]): 0.4745
- Array Heatmap signal, AIRE (PP) (AIRE (PP); [32]): 0.4567
- Array Heatmap signal, CHD5 (PCC) (CHD5 (PCC); [32]): 0.834
- Array Heatmap signal, KDM5B (1) (KDM5B (1); [32]): 0.6928
- Array Heatmap signal, TRIM66 (PB) (TRIM66 (PB); [32]): 0.643
- Array Heatmap signal, PHF8 (PHF8; [32]): 0.3543
- Array Heatmap signal, ING5 (ING5; [32]): 0.3567
- Array Heatmap signal, BPTF (PB) (BPTF (PB); [32]): 0.345
- Array Heatmap signal, PHRF1 (RP) (PHRF1 (RP); [32]): 0.8251
- Array Heatmap signal, SP140L (SP140L; [32]): 0.359
- Array Heatmap signal, KDM7A (KDM7A; [32]): 0.3476
- Array Heatmap signal, PHF23 (PHF23; [32]): 0.5635
- Array Heatmap signal, ING1 (ING1; [32]): 0.5598
- Array Heatmap signal, BAZ2B (BAZ2B; [32]): 0.4823
- Array Heatmap signal, TAF3 (TAF3; [32]): 0.2696
- Array Heatmap signal, ING4 (ING4; [32]): 0.4637
- Array Heatmap signal, PHF21A (PHF21A; [32]): 0.4738
- Array Heatmap signal, PHF2 (PHF2; [32]): 0.5204
- Array Heatmap signal, KDM5B (3) (KDM5B (3); [32]): 0.5296
- Array Heatmap signal, CHD5 (PPCC) (CHD5 (PPCC); [32]): 0.5588
- Array Heatmap signal, MORC3 (CW) (MORC3 (CW); [32]): 0.4904
- Array Heatmap signal, ING2 (ING2; [32]): 0.6036
- Array Heatmap signal, PHF13 (PHF13; [32]): 0.6124
- Array Heatmap signal, KDM5A (3) (KDM5A (3); [32]): 0.5587
- Array Heatmap signal, RAG2 (RAG2; [32]): 0.268
- Array Heatmap signal, DPF2 (PPC2W2) (DPF2 (PPC2W2); [32]): 0.7016
- Array Heatmap signal, ING3 (ING3; [32]): 0.4855
- Array Heatmap signal, MLL5 (MLL5; [32]): 0.5956
- Array Heatmap signal, DIDO1 (DIDO1; [32]): 0.721
- Array Heatmap signal, KDM5A (1) (KDM5A (1); [32]): 0.4728
